Assay results published in publication PMC8786932, “Bicyclic azetidines target acute and chronic stages of Toxoplasma gondii by inhibiting parasite phenylalanyl t-RNA synthetase” (Nature Communications, 2022).
Where two headings read alike, the source gives them in different places.

What was measured:
in vivo = experiment: in vivo; design: species or system mouse; Plasma free: unit not given here; details: for Kp / Cmax / MRT / Tmax / AUC(0-t) / AUC(0-inf) / CL/F / half-life: female, CD1, mouse, in vivo; for Cmax / MRT / Tmax / AUC(0-t) / AUC(0-inf) / CL/F / half-life: po, 10 mg/kg/day; for Cmax / MRT / Tmax / AUC(0-t) / AUC(0-inf) / CL/F / half-life / Vd: mouse, 10 mg/kg/day p.o.; for AUC(0-t): read-out: AUC0–24
Protocol: […]. All mice were fed prior to dosing. After dosing, 200 uL of blood was collected at predetermined time points (pre, 1, 3, 7, 24 h). Blood samples were processed for plasma by centrifugation at approximately 4 °C, 4,500 g for 15 min within […]. Plasma samples were stored in polypropylene tubes, quick frozen over dry ice and kept at −70 ± 10 °C until LC/MS/MS analysis. Plasma concentration versus time data was analyzed by non-compartmental approaches using the Phoenix WinNonlin 6.3 software program. Brain tissue samples were taken at day 1, 4, and 8. Tissue samples were processed by centrifugation at approximately 10 °C, 17,000 g for 30 min within 30 min of collection.

[1] = system: T. gondii RHΔΔ TgPheRS[M484I] [V262A] double mutant; experiment: Tachyzoite lytic assay, M484I_V262A double mutant; format: cell-based, Toxoplasma gondii; details: for EC50: Toxoplasma gondii
Protocol: In vitro cultures of HFF cells containing mature vacuoles were scraped, passaged through 23 g blunt end needles, and filtered using 3 micron filters. Purified parasites were resuspended in 350 μL of cytomix plus[49] and combined in a BTX 4 mm gap cuvette with 30 μL of PCR amplified templates corresponding to mutations of interest and 10 μg of pSAG1:Cas9-GFP U6:sgTgPheRS^[mut] (in 20 μL, 400 μL total volume, see Supplementary Data 1 for sgRNA sequences) prior to electroporation using a BTX ETM 830 electroporator. Amplified templates for TgPheRS mutations were generated from gBlocks (Integrated DNA Technologies, Coralville, IA, USA) that contain a BclI restriction site that replaces the PAM sequence to protect the repair template from being cut by Cas9. At 16 h post-transfection, transgenic parasites expressing pSAG1:Cas9-GFP were sorted on a Sony SH800 FACS sorter directly into 96-well plates. Single clones containing TgPheRS^[mut] were identified by amplifying a ~500 bp PCR fragment around introduced mutation followed by digestion using BclI (New England Biolabs) BclI sensitive clones were expanded and the locus was Sanger sequenced to verify incorporation of each independent mutation. To generate firefly luciferase (FLuc) expressing strains, freshly harvested parasites were combined with 20 μg of pTUB-FLUC DHFR flox plasmid and 10 μg of pSAG1:Cas9-GFP U6:sgUPRT[50] (in 50 μL cytomix plus) and transformed by electroporation as described above. […]
Parasite growth on HFF monolayers was monitored using a 96-well plate-based lytic assay modified from a previously described protocol. […] Plates were rinsed with water, air dried, and absorption quantified on the Cytation 3 multi-mode imager at 570 nm wavelength. % parasite growth was calculated as 100−[(OD value for infected cultures at each concentration of compound/average OD value for no compound and no parasite infection) × 100]. EC50 values were calculated based on the mean of three biological replicates with each replicate containing two technical replicates.

[2] = system: N. caninum expressing lacZ; experiment: Neospora caninum β-galactosidase assay; format: cell-based; details: Neospora caninum
Protocol: β-galactosidase assays were conducted using tissue culture grade 96-well plates (TPP) containing confluent monolayers of HFF cells. A 10-point compound dilution series (2-fold) for each compound was generated as described above (2X concentration, 0.1% final DMSO). Growth of the N. caninum strain expressing lacZ was monitoring using a β-galactosidase (β-gal) assay as described in[21] with the following modifications. N. caninum lacZ expressing parasites (1 × 10^3) were added (in 100 μL volume) into 96-well plates containing HFF monolayers to reach final compound concentration (5.0 μM to 0.002 μM in 200 μL total volume). Plates were incubated at 37 °C, 5% CO2 for 72 h prior to completing β-gal assay as previously described[23],[27],[51]. Briefly, parasite containing monolayers were lysed with 1.0% Triton X-100 and β-gal activity determined by adding 1 mM chlorophenolred-β-D-galactopyranoside followed by monitoring absorption at 570 nm on a Cytation 3 multi-mode imager (BioTek), as described.

For COc1ccc(NC(=O)N2CCCCN3[C@H](CN(C)C)[C@H](c4ccc(C#Cc5ccccc5)cc4)[C@@H]3C2)cc1 [BRD7929], the “free concentration in plasma vs EC50” value (in vivo; 10 mg/kg p.o. daily, 8 days, unbound) was “remained below the EC50 for most of the duration”, the Plasma free (in vivo; 10 mg/kg p.o. daily, mean, time 1:00:00) was 7.292 and the Brain free (in vivo; 10 mg/kg p.o. daily, mean, time 24:00:00) was 24.8595. It also gave a Kp (in vivo; brain/plasma, Day 1, read-out: Kp (Cb/Cp)) of 169, a Kp (in vivo; brain/plasma, Day 4, read-out: Kp (Cb/Cp)) of 211 and a Kp (in vivo; brain/plasma, Day 8, read-out: Kp (Cb/Cp)) of 577. For the same compound, the Cmax (in vivo; Day 1) was 153 ng/mL, the MRT (in vivo; Day 1) was 13.1 h and the Tmax (in vivo; Day 1) was 18.3 h. It also gave an AUC(0-t) (in vivo; Day 1) of 3190 ng·h/mL, an AUC(0-inf) (in vivo; Day 4) of 27700 ng·h/mL and a CL/F (in vivo; Day 4) of 7.1 mL/min/kg. For the same compound, the Cmax (in vivo; Day 4) was 330 ng/mL, the MRT (in vivo; Day 4) was 11.7 h and the Tmax (in vivo; Day 4) was 4.3 h. The half-life (in vivo; Day 4) was 64.6 h, the AUC(0-t) (in vivo; Day 4) was 6360 ng·h/mL and the AUC(0-inf) (in vivo; Day 8) was 20000 ng·h/mL. The CL/F (in vivo; Day 8) was 10 mL/min/kg, the Cmax (in vivo; Day 8) was 207 ng/mL and the MRT (in vivo; Day 8) was 12 h. The Tmax (in vivo; Day 8) was 5 h, the half-life (in vivo; Day 8) was 81.3 h and the AUC(0-t) (in vivo; Day 8) was 4390 ng·h/mL. For the same compound, the Kp (in vivo; unbound brain/plasma, Day 1, read-out: Kpu,u (Cb/Cp)) was 2.1, the Kp (in vivo; unbound brain/plasma, Day 4, read-out: Kpu,u (Cb/Cp)) was 2.6 and the Kp (in vivo; unbound brain/plasma, Day 8, read-out: Kpu,u (Cb/Cp)) was 7.2. For the same compound, the Kp (in vivo; read-out: Kp u,u, concentration in brain vs. plasma) was 2 to 7, the “Vd” value (in vivo; Day 4) was 32 L/kg and the “Vd” value (in vivo; Day 8) was 62 L/kg. For the same compound, the Plasma free (in vivo; time 3:00:00) was 9.26, the Plasma free (in vivo; time 7:00:00) was 10.41 and the Plasma free (in vivo; time 24:00:00) was 11.33. The Plasma free (in vivo; time 72:00:00) was 12.09, the Plasma free (in vivo; time 73:00:00) was 19.13 and the Plasma free (in vivo; time 75:00:00) was 25.02. The Plasma free (in vivo; time 79:00:00) was 22.5, the Brain free (in vivo; time 96:00:00) was 44.7005 and the Plasma free (in vivo; time 96:00:00) was 17.52. It also gave a Plasma free (in vivo; time 168:00:00) of 12.4, a Plasma free (in vivo; time 169:00:00) of 14.08 and a Plasma free (in vivo; time 171:00:00) of 14.92. It also gave a Plasma free (in vivo; time 175:00:00) of 15.38, a Brain free (in vivo; time 192:00:00) of 77.3745 and a Plasma free (in vivo; time 192:00:00) of 12.86. For the same compound, the “shift of EC50, double mutant” value ([1]; M484I and V262A double mutant) was “only shifted the EC50 slightly more than every single mutation”, the EC50 ([1]; 72 h, read-out: EC50, M484I_V262A) was 265 nM and the EC50 ([1]; Table S4, V262A-M484I, read-out: EC50 (growth restriction)) was 234 nM. It also gave an EC50 ([2]; Table S3, 72 h, lacZ, read-out: N. caninum EC50) of 42 nM and an EC50 ([2]; read-out: N. caninum (EC50, Fig S2 source data)) of 42.4 nM.
